From US8901118B2, “Compounds and methods for kinase modulation, and indications therefor” (Plexxikon Inc., priority 2010, dated 2014)

Columns and labels:
TrkA kinase = TrkA kinase (Homo sapiens, UniProt P04629); assay: TrkA kinase biochemical activity assay (AlphaScreen); conditions: 100 μM ATP; read-out: Biochemical Inhibition IC50 TrkA
Summary of the method: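 IC50 values come from AlphaScreen PY20/streptavidin bead signal versus compound concentration. Kinase reaction: 1 ng/well TrkA, 100 μM ATP, 30 nM biotin-(E4Y)10 substrate, Mn2+-containing Hepes buffer pH 7.5, 5% DMSO, 40 min, room temperature; TrkC assayed by the same approach.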

SKNSH cells = assay: SKNSH (human neuroblastoma) cell proliferation assay (ATPlite); assay type: cell-based; conditions: SK-N-SH, read-out: Inhibition of Cell Proliferation IC50, SKNSH
Summary of the method: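 Fms/Trk inhibitor efficacy was tested by proliferation of SKNSH neuroblastoma cells. After 3 days of compound exposure at 37° C. in 5% CO2, 20 μL per well of ATPlite 1 step reagent was added, plates sat 10 minutes at room temperature, and luminescence, proportional to cell number, was read on a Safire reader to derive IC50.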

Sequence of TrkA kinase (P04629 33-796): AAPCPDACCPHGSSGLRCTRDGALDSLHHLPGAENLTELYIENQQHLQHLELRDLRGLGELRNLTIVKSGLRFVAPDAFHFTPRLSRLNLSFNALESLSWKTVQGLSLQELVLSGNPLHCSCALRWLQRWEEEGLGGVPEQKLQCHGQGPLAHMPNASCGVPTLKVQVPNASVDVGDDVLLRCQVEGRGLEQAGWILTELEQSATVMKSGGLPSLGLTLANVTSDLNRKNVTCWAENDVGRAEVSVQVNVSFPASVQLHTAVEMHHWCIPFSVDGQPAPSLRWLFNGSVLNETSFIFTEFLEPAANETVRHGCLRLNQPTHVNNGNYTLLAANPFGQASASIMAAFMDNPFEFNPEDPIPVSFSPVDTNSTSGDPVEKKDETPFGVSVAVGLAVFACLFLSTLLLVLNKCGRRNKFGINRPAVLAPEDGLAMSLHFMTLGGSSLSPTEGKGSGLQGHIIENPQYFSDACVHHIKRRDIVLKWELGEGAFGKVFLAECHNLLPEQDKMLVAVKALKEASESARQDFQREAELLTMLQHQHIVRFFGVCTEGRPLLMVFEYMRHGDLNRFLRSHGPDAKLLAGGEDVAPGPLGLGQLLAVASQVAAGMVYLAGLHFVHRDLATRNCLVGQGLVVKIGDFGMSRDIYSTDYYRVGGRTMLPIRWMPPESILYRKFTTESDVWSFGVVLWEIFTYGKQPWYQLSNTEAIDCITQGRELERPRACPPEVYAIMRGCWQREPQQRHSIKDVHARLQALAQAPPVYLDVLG

COc1ccccc1Nc1ncc(Cc2c[nH]c3ncc(Cl)cc23)cn1 [Compound P-3016, [5-(5-Chloro-1H-pyrrolo[2,3-b]pyridin-3-ylmethyl)-pyrimidin-2-yl]-(2-methoxy-phenyl)-amine]
IC50 (TrkA kinase): > 1000 nM

Fc1cccc(Nc2ncc(Cc3c[nH]c4ncc(Cl)cc34)cn2)c1 [Compound P-3017, [5-(5-Chloro-1H-pyrrolo[2,3-b]pyridin-3-ylmethyl)-pyrimidin-2-yl]-(3-fluoro-phenyl)-amine]
IC50 (TrkA kinase): > 1000 nM

Cc1cnc2[nH]cc(Cc3cnc(Nc4ccc(C(F)(F)F)nc4)nc3)c2c1 [Compound P-3018, [5-(5-Methyl-1H-pyrrolo[2,3-b]pyridin-3-ylmethyl)-pyrimidin-2-yl]-(6-trifluoromethyl-pyridin-3-yl)-amine]
IC50 (TrkA kinase): < 1000 nM

COc1ccc(Nc2ccc(Cc3c[nH]c4ncc(C)cc34)c(F)n2)cn1 [Compound P-3019, [6-fluoro-5-(5-methyl-1H-pyrrolo[2,3-b]pyridin-3-ylmethyl)-pyridin-2-yl]-(6-methoxy-pyridin-3-yl)-amine]
IC50 (TrkA kinase): < 100 nM
IC50 (SKNSH cells): < 10000 nM

COc1ccc(Nc2ncc(Cc3c[nH]c4ncc(C)cc34)cn2)cn1 [Compound P-3020, (6-Methoxy-pyridin-3-yl)-[5-(5-methyl-1H-pyrrolo[2,3-b]pyridin-3-ylmethyl)-pyrimidin-2-yl]-amine]
IC50 (TrkA kinase): < 100 nM
IC50 (SKNSH cells): < 1000 nM

COc1cc(Nc2ncc(Cc3c[nH]c4ncc(C)cc34)cn2)ccc1F [Compound P-3022, (4-Fluoro-3-methoxy-phenyl)-[5-(5-methyl-1H-pyrrolo[2,3-b]pyridin-3-ylmethyl)-pyrimidin-2-yl]-amine]
IC50 (TrkA kinase): < 1000 nM

Cc1cnc2[nH]cc(Cc3cnc(Nc4cc(C(F)(F)F)n[nH]4)nc3)c2c1 [Compound P-3037, [5-(5-Methyl-1H-pyrrolo[2,3-b]pyridin-3-ylmethyl)-pyrimidin-2-yl]-(5-trifluoromethyl-2H-pyrazol-3-yl)-amine]
IC50 (SKNSH cells): > 25000 nM

Cc1cnc2[nH]cc(Cc3cnc(Nc4cc(OC(C)C)n[nH]4)nc3)c2c1 [Compound P-3038, (5-Isopropoxy-2H-pyrazol-3-yl)-[5-(5-methyl-1H-pyrrolo[2,3-b]pyridin-3-ylmethyl)-pyrimidin-2-yl]-amine]
IC50 (SKNSH cells): > 25000 nM

CCc1ccc(Nc2ccc(Cc3c[nH]c4ncc(C)cc34)c(F)n2)cn1 [Compound P-3048, (6-Ethyl-pyridin-3-yl)-[6-fluoro-5-(5-methyl-1H-pyrrolo[2,3-b]pyridin-3-ylmethyl)-pyridin-2-yl]-amine]
IC50 (TrkA kinase): < 10 nM

CCc1ccc(Nc2ccc(C(=O)c3c[nH]c4ncc(C)cc34)c(F)n2)cn1 [Compound P-3049, [6-(6-Ethyl-pyridin-3-ylamino)-2-fluoro-pyridin-3-yl]-(5-methyl-1H-pyrrolo[2,3-b]pyridin-3-yl)-methanone]
IC50 (TrkA kinase): < 10 nM

Cc1cnc2[nH]cc(Cc3ccc(Nc4ccc(C5CC5)nc4)nc3F)c2c1 [Compound P-3050, (6-Cyclopropyl-pyridin-3-yl)-[6-fluoro-5-(5-methyl-1H-pyrrolo[2,3-b]pyridin-3-ylmethyl)-pyridin-2-yl]-amine]
IC50 (TrkA kinase): < 100 nM

Cc1cnc2[nH]cc(C(=O)c3ccc(Nc4ccc(C5CC5)nc4)nc3F)c2c1 [Compound P-3051, [6-(6-Cyclopropyl-pyridin-3-ylamino)-2-fluoro-pyridin-3-yl]-(5-methyl-1H-pyrrolo[2,3-b]pyridin-3-yl)-methanone]
IC50 (TrkA kinase): < 10 nM

O=C(c1ccc(Nc2ccc(C3CC3)nc2)nc1F)c1c[nH]c2ncccc12 [Compound P-3052, [6-(6-Cyclopropyl-pyridin-3-ylamino)-2-fluoro-pyridin-3-yl]-(1H-pyrrolo[2,3-b]pyridin-3-yl)-methanone]
IC50 (TrkA kinase): < 10 nM

Fc1nc(Nc2ccc(C3CC3)nc2)ccc1Cc1c[nH]c2ncccc12 [Compound P-3053, (6-Cyclopropyl-pyridin-3-yl)-[6-fluoro-5-(1H-pyrrolo[2,3-b]pyridin-3-ylmethyl)-pyridin-2-yl]-amine]
IC50 (TrkA kinase): < 100 nM

CCOc1ccc(Nc2ccc(Cc3c[nH]c4ncnc(C5CC5)c34)c(F)n2)cn1 [Compound P-4026, [5-(4-Cyclopropyl-7H-pyrrolo[2,3-d]pyrimidin-5-ylmethyl)-6-fluoro-pyridin-2-yl]-(6-ethoxy-pyridin-3-yl)-amine]
IC50 (TrkA kinase): < 10 nM

CCOc1ccc(Nc2ccc(C(=O)c3c[nH]c4ncnc(C5CC5)c34)c(F)n2)cn1 [Compound P-4027, (4-Cyclopropyl-7H-pyrrolo[2,3-d]pyrimidin-5-yl)-[6-(6-ethoxy-pyridin-3-ylamino)-2-fluoro-pyridin-3-yl]-methanone]
IC50 (TrkA kinase): < 10 nM

CCc1ccc(Nc2ccc(Cc3c[nH]c4ncnc(C5CC5)c34)c(F)n2)cn1 [Compound P-4028, [5-(4-Cyclopropyl-7H-pyrrolo[2,3-d]pyrimidin-5-ylmethyl)-6-fluoro-pyridin-2-yl]-(6-ethyl-pyridin-3-yl)-amine]
IC50 (TrkA kinase): < 10 nM

CCc1ccc(Nc2ccc(C(=O)c3c[nH]c4ncnc(C5CC5)c34)c(F)n2)cn1 [Compound P-4029, (4-Cyclopropyl-7H-pyrrolo[2,3-d]pyrimidin-5-yl)-[6-(6-ethyl-pyridin-3-ylamino)-2-fluoro-pyridin-3-yl]-methanone]
IC50 (TrkA kinase): < 10 nM

Cc1ccc(Nc2ccc(Cc3c[nH]c4ncnc(C5CC5)c34)c(F)n2)cn1 [Compound P-4030, [5-(4-Cyclopropyl-7H-pyrrolo[2,3-d]pyrimidin-5-ylmethyl)-6-fluoro-pyridin-2-yl]-(6-methyl-pyridin-3-yl)-amine]
IC50 (TrkA kinase): < 100 nM

Cc1ccc(Nc2ccc(C(=O)c3c[nH]c4ncnc(C5CC5)c34)c(F)n2)cn1 [Compound P-4031, (4-Cyclopropyl-7H-pyrrolo[2,3-d]pyrimidin-5-yl)-[2-fluoro-6-(6-methyl-pyridin-3-ylamino)-pyridin-3-yl]-methanone]
IC50 (TrkA kinase): < 100 nM

CCOc1ccc(Nc2ccc(C(=O)c3c[nH]c4ncnc(C)c34)c(F)n2)cn1 [Compound P-4032, [6-(6-Ethoxy-pyridin-3-ylamino)-2-fluoro-pyridin-3-yl]-(4-methyl-7H-pyrrolo[2,3-d]pyrimidin-5-yl)-methanone]
IC50 (TrkA kinase): < 100 nM

CCn1cc(Nc2ccc(Cc3c[nH]c4ncnc(C5CC5)c34)c(F)n2)cn1 [Compound P-4036, [5-(4-Cyclopropyl-7H-pyrrolo[2,3-d]pyrimidin-5-ylmethyl)-6-fluoro-pyridin-2-yl]-(1-ethyl-1H-pyrazol-4-yl)-amine]
IC50 (TrkA kinase): < 100 nM

CCn1cc(Nc2ccc(C(=O)c3c[nH]c4ncnc(C5CC5)c34)c(F)n2)cn1 [Compound P-4037, (4-Cyclopropyl-7H-pyrrolo[2,3-d]pyrimidin-5-yl)-[6-(1-ethyl-1H-pyrazol-4-ylamino)-2-fluoro-pyridin-3-yl]-methanone]
IC50 (TrkA kinase): < 100 nM

Cc1cncc(Nc2ccc(Cc3c[nH]c4ncnc(C5CC5)c34)c(F)n2)c1 [Compound P-4038, [5-(4-Cyclopropyl-7H-pyrrolo[2,3-d]pyrimidin-5-ylmethyl)-6-fluoro-pyridin-2-yl]-(5-methyl-pyridin-3-yl)-amine]
IC50 (TrkA kinase): < 100 nM

Cc1cncc(Nc2ccc(C(=O)c3c[nH]c4ncnc(C5CC5)c34)c(F)n2)c1 [Compound P-4039, (4-Cyclopropyl-7H-pyrrolo[2,3-d]pyrimidin-5-yl)-[2-fluoro-6-(5-methyl-pyridin-3-ylamino)-pyridin-3-yl]-methanone]
IC50 (TrkA kinase): < 100 nM
